Source: the NIST ThermoML archive (doi:10.1021/acs.jced.6b00523)
“And” between values parts separate entries of the source, which are not always exact repeats. Equal values may be shown once.

What was measured:
[1] = Solid-liquid equilibrium temperature; settings: 100 kPa, DTA
[2] = Closed cell (Static) method
[3] = Molar enthalpy of transition or fusion; settings: DSC
[4] = Boiling temperature at pressure P; settings: 100 kPa; Glass; DTA

O=C(c1ccccc1)c1ccccc1 [benzophenone]
Settings | Molar enthalpy of transition or fusion, [3] [kcal/mol] | Solid-liquid equilibrium temperature, [1] [K]
Crystal | 4.45 | 321.3
Metastable crystal | 3.47 | 298.3

[2]
Settings | vapor or sublimation pressure
293.08 K, Crystal | 4.2e-05 kPa
293.09 K, Crystal | 4.6e-05 kPa
293.1 K, Crystal | 4.1e-05 kPa
293.11 K, Metastable liquid | 8.1e-05 kPa and 8.4e-05 kPa and 8.5e-05 kPa
296.29 K, Crystal | 6.8e-05 kPa and 6.9e-05 kPa
296.3 K, Crystal | 6.7e-05 kPa
298.44 K, Crystal | 9.2e-05 kPa and 9.3e-05 kPa
298.45 K, Crystal | 9e-05 kPa
298.48 K, Metastable liquid | 0.000153 kPa and 0.000157 kPa and 0.000158 kPa
300.55 K, Crystal | 0.000124 kPa
300.56 K, Crystal | 0.000118 kPa and 0.000119 kPa
302.13 K, Metastable liquid | 0.000217 kPa and 0.000221 kPa
302.14 K, Metastable liquid | 0.000217 kPa
303.2 K, Crystal | 0.000168 kPa
303.22 K, Crystal | 0.000166 kPa
303.25 K, Crystal | 0.000165 kPa
306.93 K, Crystal | 0.000263 kPa and 0.000265 kPa and 0.000267 kPa
307.46 K, Metastable liquid | 0.000382 kPa
307.48 K, Metastable liquid | 0.000376 kPa and 0.00038 kPa
309.05 K, Crystal | 0.000338 kPa and 0.00034 kPa and 0.000345 kPa
311.1 K, Crystal | 0.000431 kPa and 0.000434 kPa and 0.000435 kPa
312.77 K, Metastable liquid | 0.000631 kPa
312.78 K, Metastable liquid | 0.000635 kPa and 0.000637 kPa
314.3 K, Crystal | 0.000629 kPa and 0.000632 kPa and 0.000635 kPa
317.33 K, Crystal | 0.000891 kPa
317.34 K, Crystal | 0.000892 kPa and 0.000899 kPa
318.05 K, Metastable liquid | 0.001035 kPa and 0.001036 kPa and 0.001039 kPa
319.4 K, Crystal | 0.00113 kPa
319.41 K, Crystal | 0.001128 kPa and 0.001131 kPa
320.42 K, Crystal | 0.001256 kPa and 0.001265 kPa and 0.001267 kPa
320.95 K, Crystal | 0.001353 kPa and 0.001356 kPa and 0.001362 kPa
323.33 K, Metastable liquid | 0.001658 kPa and 0.00166 kPa and 0.001661 kPa
333.79 K, Liquid | 0.003974 kPa and 0.003975 kPa and 0.003979 kPa
338.9 K, Liquid | 0.005953 kPa and 0.005954 kPa and 0.005968 kPa
344.09 K, Liquid | 0.008882 kPa and 0.00889 kPa and 0.008894 kPa
349.19 K, Liquid | 0.0129 kPa and 0.01291 kPa and 0.01293 kPa
354.35 K, Liquid | 0.01864 kPa and 0.01865 kPa and 0.01866 kPa
359.4 K, Liquid | 0.02628 kPa and 0.02629 kPa and 0.02631 kPa
364.47 K, Liquid | 0.03673 kPa
364.48 K, Liquid | 0.03672 kPa

Settings | Boiling temperature at pressure P [°C]
[4] | -61

CCCCCCCCCC [decane]
[2], Liquid
Settings | vapor or sublimation pressure
276.76 K | 0.03526 kPa
276.77 K | 0.03527 kPa and 0.03532 kPa
279.78 K | 0.0452 kPa
279.79 K | 0.04525 kPa
282.92 K | 0.0583 kPa and 0.05835 kPa
282.93 K | 0.05835 kPa
285.13 K | 0.06951 kPa
285.16 K | 0.06967 kPa
285.18 K | 0.06981 kPa
288.76 K | 0.0915 kPa and 0.09155 kPa
288.77 K | 0.09159 kPa
292.21 K | 0.1188 kPa
292.22 K | 0.1188 kPa
294.67 K | 0.1405 kPa
301.29 K | 0.2229 kPa
301.38 K | 0.2242 kPa and 0.2243 kPa
303.84 K | 0.2659 kPa
303.85 K | 0.266 kPa and 0.2661 kPa
307.33 K | 0.3327 kPa and 0.3328 kPa
315.2 K | 0.5466 kPa
315.21 K | 0.5467 kPa
319.09 K | 0.6901 kPa
319.11 K | 0.6907 kPa and 0.6909 kPa
320.85 K | 0.7646 kPa and 0.7649 kPa and 0.765 kPa
324.98 K | 0.9683 kPa
324.99 K | 0.9687 kPa
325 K | 0.9687 kPa
326.41 K | 1.049 kPa
330.79 K | 1.33 kPa and 1.331 kPa
330.8 K | 1.332 kPa
331.92 K | 1.414 kPa
331.93 K | 1.415 kPa

[CH]1C=CC=C1.[CH]1C=CC=C1.[Fe] [ferrocene]
[2], Crystal
Settings | vapor or sublimation pressure
276.97 K | 9.4e-05 kPa and 9.7e-05 kPa
276.98 K | 0.000101 kPa
282.75 K | 0.000181 kPa and 0.000189 kPa
282.76 K | 0.000194 kPa
286.28 K | 0.000288 kPa
286.29 K | 0.000285 kPa
286.31 K | 0.000283 kPa
288.24 K | 0.000335 kPa and 0.000344 kPa
292.28 K | 0.000536 kPa
292.29 K | 0.000527 kPa and 0.000529 kPa
293.76 K | 0.000622 kPa and 0.000626 kPa and 0.000627 kPa
294.28 K | 0.000652 kPa
294.29 K | 0.000646 kPa
294.34 K | 0.00065 kPa
296.77 K | 0.000841 kPa
296.78 K | 0.000848 kPa and 0.000858 kPa
299.19 K | 0.001072 kPa and 0.001073 kPa and 0.001078 kPa
302.11 K | 0.001417 kPa
302.13 K | 0.001428 kPa and 0.001429 kPa
303.24 K | 0.00162 kPa
303.25 K | 0.001618 kPa
304.61 K | 0.001809 kPa and 0.001811 kPa and 0.001815 kPa
307.47 K | 0.002395 kPa and 0.002397 kPa and 0.002384 kPa
310.03 K | 0.003047 kPa and 0.003053 kPa
310.04 K | 0.003068 kPa
312.78 K | 0.003906 kPa and 0.00391 kPa and 0.003916 kPa
314.08 K | 0.00442 kPa and 0.004424 kPa
314.09 K | 0.004449 kPa
315.43 K | 0.004969 kPa and 0.004971 kPa
318.06 K | 0.006287 kPa and 0.006293 kPa and 0.006304 kPa
320.77 K | 0.007956 kPa
323.34 K | 0.009923 kPa
323.35 K | 0.009927 kPa and 0.009932 kPa
324.89 K | 0.01134 kPa and 0.01135 kPa
326.09 K | 0.01251 kPa and 0.01252 kPa
328.59 K | 0.01539 kPa
328.6 K | 0.0154 kPa and 0.01541 kPa
331.35 K | 0.01928 kPa
331.36 K | 0.01929 kPa and 0.0193 kPa
333.86 K | 0.02352 kPa
335.51 K | 0.02691 kPa and 0.02692 kPa
336.59 K | 0.02929 kPa
336.6 K | 0.02929 kPa
339.07 K | 0.03535 kPa
339.08 K | 0.03533 kPa and 0.03537 kPa
341.81 K | 0.04367 kPa and 0.04368 kPa and 0.04369 kPa
344.2 K | 0.052 kPa
344.21 K | 0.05207 kPa and 0.0521 kPa
346.02 K | 0.0598 kPa and 0.05982 kPa and 0.05985 kPa
349.36 K | 0.07591 kPa
349.37 K | 0.07593 kPa and 0.07595 kPa
351.22 K | 0.08709 kPa and 0.08711 kPa and 0.08712 kPa
354.37 K | 0.1082 kPa
356.27 K | 0.1242 kPa
359.5 K | 0.1538 kPa
359.51 K | 0.1539 kPa
362.73 K | 0.1914 kPa and 0.1916 kPa
366.77 K | 0.2492 kPa and 0.2493 kPa and 0.2494 kPa

c1ccc2ccccc2c1 [naphthalene]
[2]
Settings | vapor or sublimation pressure
276.72 K, Crystal | 0.001118 kPa
276.73 K, Crystal | 0.001122 kPa
276.74 K, Crystal | 0.001118 kPa
280.12 K, Crystal | 0.001625 kPa
280.15 K, Crystal | 0.001634 kPa
280.17 K, Crystal | 0.001644 kPa
283.27 K, Crystal | 0.002321 kPa and 0.002329 kPa and 0.002333 kPa
286.33 K, Crystal | 0.003264 kPa and 0.003275 kPa
286.34 K, Crystal | 0.003276 kPa
289.39 K, Crystal | 0.004482 kPa and 0.004484 kPa and 0.004493 kPa
292 K, Crystal | 0.005885 kPa and 0.005899 kPa and 0.005902 kPa
292.04 K, Crystal | 0.005878 kPa
292.05 K, Crystal | 0.005881 kPa and 0.005889 kPa
293.36 K, Crystal | 0.006861 kPa
293.38 K, Crystal | 0.006881 kPa
293.4 K, Crystal | 0.006871 kPa
294.91 K, Crystal | 0.007907 kPa
294.94 K, Crystal | 0.007905 kPa
294.96 K, Crystal | 0.007922 kPa
296.91 K, Crystal | 0.009768 kPa and 0.009773 kPa
296.92 K, Crystal | 0.009786 kPa
297.67 K, Crystal | 0.01039 kPa and 0.0104 kPa
297.68 K, Crystal | 0.01041 kPa
300.93 K, Crystal | 0.01426 kPa
300.95 K, Crystal | 0.01427 kPa and 0.01428 kPa
302.6 K, Crystal | 0.01691 kPa and 0.01696 kPa
303.67 K, Crystal | 0.01833 kPa and 0.01835 kPa
306.52 K, Crystal | 0.02413 kPa
306.6 K, Crystal | 0.02433 kPa
306.65 K, Crystal | 0.02446 kPa
308.22 K, Crystal | 0.02835 kPa and 0.02834 kPa
312.83 K, Crystal | 0.04277 kPa
312.84 K, Crystal | 0.04281 kPa
312.85 K, Crystal | 0.04282 kPa
313.85 K, Crystal | 0.04691 kPa
315.09 K, Crystal | 0.05173 kPa and 0.05174 kPa
317.19 K, Crystal | 0.06259 kPa and 0.06261 kPa and 0.06262 kPa
319.43 K, Crystal | 0.07588 kPa and 0.07592 kPa
324.1 K, Crystal | 0.1124 kPa
324.99 K, Crystal | 0.1206 kPa
325 K, Crystal | 0.1206 kPa
325.01 K, Crystal | 0.1206 kPa
326.36 K, Crystal | 0.1338 kPa
326.37 K, Crystal | 0.1338 kPa
328.22 K, Crystal | 0.1567 kPa
330.59 K, Crystal | 0.1886 kPa
330.6 K, Crystal | 0.1887 kPa
335.27 K, Crystal | 0.2723 kPa
335.28 K, Crystal | 0.2726 kPa
335.31 K, Crystal | 0.2732 kPa
336.07 K, Crystal | 0.288 kPa and 0.2881 kPa
337.45 K, Crystal | 0.3184 kPa
337.46 K, Crystal | 0.3185 kPa
339.09 K, Crystal | 0.3626 kPa and 0.3628 kPa and 0.3624 kPa
341.45 K, Crystal | 0.4305 kPa
341.46 K, Crystal | 0.4306 kPa
346.83 K, Crystal | 0.6347 kPa
346.84 K, Crystal | 0.6347 kPa
348.58 K, Crystal | 0.7143 kPa and 0.7145 kPa and 0.7148 kPa
352.18 K, Crystal | 0.9195 kPa and 0.9196 kPa
355.35 K, Liquid | 1.098 kPa
358.34 K, Liquid | 1.266 kPa
358.36 K, Liquid | 1.267 kPa
358.38 K, Liquid | 1.269 kPa
